Data from patent publication US12077503B2, “Substituted cyclic amides and their use as herbicides” (FMC CORPORATION, priority 2015, dated 2024).

Key:
Format in all cases: in vivo
[1] = tested on: sedge, umbrella (small-flower umbrella sedge, Cyperus difformis); experiment: Test B flooded paddy test; settings: Cyperus difformis, 250 g ai/ha, Flood; 0 to 100 scale where 0 is no effect and 100 is complete control; read-out: Sedge, Umbrella plant response rating
Summary of the method: (§1)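 Evaluation by eye, against controls, occurred 13–15 d post-treatment in a greenhouse, using a 0 (no effect) to 100 (complete control) scale. Application was into the paddy water, 3 cm deep over the soil, on 2-leaf plants.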

rice (Oryra sativa) = experiment: Test B flooded paddy test; settings: Oryza sativa, 250 g ai/ha, Flood; 0 to 100 scale where 0 is no effect and 100 is complete control; read-out: Rice plant response rating
Summary of the method: as §1

[2] = tested on: ducksalad (Heteranthera limosa); experiment: Test B flooded paddy test; settings: Heteranthera limosa, 250 g ai/ha, Flood; 0 to 100 scale where 0 is no effect and 100 is complete control; read-out: Ducksalad plant response rating
Summary of the method: as §1

[3] = tested on: barnyardgrass (Echinochloa crus-galli); experiment: Test B flooded paddy test; settings: Echinochloa crus-galli, 250 g ai/ha, Flood; 0 to 100 scale where 0 is no effect and 100 is complete control; read-out: Barnyardgrass plant response rating
Summary of the method: as §1

[4] = tested on: giant foxtail (Setaria faberii); experiment: Test A preemergence; settings: Setaria faberi, pre-emergence, 240 h, Preemergence; for pest or weed control at 125 g/ha: 125 g ai/ha, visual injury rating after approximately 10 d, read-out: Foxtail, Giant plant response rating (0 to 100 scale, 0 is no effect, 100 is complete control); for pest or weed control at 31 g/ha: 31 g ai/ha, 0 to 100 scale (0 no effect, 100 complete control), read-out: Plant response rating, Foxtail, Giant
Summary of the method: (§2)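 Seeds sprayed preemergence with a directed soil spray, or plants at 2 to 10 cm height and one- to two-leaf stage sprayed postemergence, with test chemicals in a non-phytotoxic solvent mixture containing surfactant, in loam soil–sand blend. Injury rated visually against untreated controls after about 10 d in greenhouse, 0 (no effect) to 100 (complete control).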

[5] = tested on: ragweed (common ragweed, Ambrosia elatior); experiment: Test A preemergence; settings: Ambrosia artemisiifolia, pre-emergence, 240 h, Preemergence; for pest or weed control at 31 g/ha: 31 g ai/ha, 0 to 100 scale where 0 is no effect and 100 is complete control, read-out: Ragweed plant response rating; for pest or weed control at 125 g/ha: 125 g ai/ha, visual injury rating after approximately 10 d, read-out: Ragweed plant response rating (0 to 100 scale, 0 is no effect, 100 is complete control)
Summary of the method: as §2

[6] = tested on: barnyardgrass (Echinochloa crus-galli); experiment: Test A preemergence; settings: Echinochloa crus-galli, pre-emergence, 240 h, Preemergence; for pest or weed control at 125 g/ha: 125 g ai/ha, visual injury rating after approximately 10 d, read-out: Barnyardgrass plant response rating (0 to 100 scale, 0 is no effect, 100 is complete control); for pest or weed control at 31 g/ha: 31 g ai/ha, 0 to 100 scale (0 no effect, 100 complete control), read-out: Plant response rating, Barnyardgrass
Summary of the method: as §2

Kochia (Kochia scoparia) [7] = experiment: Test A preemergence; settings: Bassia scoparia, pre-emergence, 240 h, Preemergence; for pest or weed control at 31 g/ha: 31 g ai/ha, 0 to 100 scale where 0 is no effect and 100 is complete control, read-out: Kochia plant response rating; for pest or weed control at 125 g/ha: 125 g ai/ha, visual injury rating after approximately 10 d, read-out: Kochia plant response rating (0 to 100 scale, 0 is no effect, 100 is complete control)
Summary of the method: as §2

[8] = tested on: ryegrass, Italian (Italian ryegrass, Lolium multiflorum); experiment: Test A preemergence; settings: Lolium multiflorum, pre-emergence, 240 h, Preemergence; for pest or weed control at 31 g/ha: 31 g ai/ha, 0 to 100 scale where 0 is no effect and 100 is complete control, read-out: Ryegrass, Italian plant response rating; for pest or weed control at 125 g/ha: 125 g ai/ha, visual injury rating after approximately 10 d, read-out: Ryegrass, Italian plant response rating (0 to 100 scale, 0 is no effect, 100 is complete control)
Summary of the method: as §2

[9] = tested on: pigweed (Amaranthus retroflexus); experiment: Test A preemergence; settings: Amaranthus retroflexus, pre-emergence, 240 h, Preemergence; for pest or weed control at 31 g/ha: 31 g ai/ha, 0 to 100 scale where 0 is no effect and 100 is complete control, read-out: Pigweed plant response rating; for pest or weed control at 125 g/ha: 125 g ai/ha, visual injury rating after approximately 10 d, read-out: Pigweed plant response rating (0 to 100 scale, 0 is no effect, 100 is complete control)
[10] = tested on: Galium (catchweed bedstraw, Galium aparine); experiment: Test A postemergence; settings: Galium, post-emergence, 240 h, Postemergence, read-out: Plant response rating, Galium; for pest or weed control at 125 g/ha: 125 g ai/ha, visual injury after approximately 10 d, 0 to 100 scale where 0 is no effect and 100 is complete control; for pest or weed control at 31 g/ha: 31 g ai/ha, visual injury after approx. 10 d, 0 to 100 scale, 0 no effect, 100 complete control
Summary of the method: as §2

[11] = tested on: giant foxtail (Setaria faberii); experiment: Test A postemergence; settings: Setaria faberi, post-emergence, 240 h, Postemergence, read-out: Plant response rating, Foxtail, Giant; for pest or weed control at 125 g/ha: 125 g ai/ha, visual injury after approximately 10 d, 0 to 100 scale where 0 is no effect and 100 is complete control; for pest or weed control at 31 g/ha: 31 g ai/ha, visual injury after approx. 10 d, 0 to 100 scale, 0 no effect, 100 complete control
Summary of the method: as §2

corn (Zea mays) = experiment: Test A postemergence; settings: Zea mays, post-emergence, 240 h, Postemergence; for Corn plant response rating (crop injury, 0 = no effect, 100 = complete kill) at 125 g/ha: 125 g ai/ha, visual injury after approximately 10 d, 0 to 100 scale where 0 is no effect and 100 is complete control; for Corn plant response rating (crop injury, 0 = no effect, 100 = complete kill) at 31 g/ha: 31 g ai/ha, visual injury after approx. 10 d, 0 to 100 scale, 100 complete control
Summary of the method: as §2

[12] = tested on: wheat (Triticum aestivum); experiment: Test A postemergence; settings: Triticum aestivum, post-emergence, 240 h, Postemergence, read-out: Plant response rating, Wheat; for plant injury at 125 g/ha: 125 g ai/ha, visual injury after approximately 10 d, 0 to 100 scale where 0 is no effect and 100 is complete control; for plant injury at 31 g/ha: 31 g ai/ha, visual injury after approx. 10 d, 0 to 100 scale, 0 no effect, 100 complete control
Summary of the method: as §2

[13] = tested on: ragweed (common ragweed, Ambrosia elatior); experiment: Test A postemergence; settings: Ambrosia artemisiifolia, post-emergence, 240 h, Postemergence, read-out: Plant response rating, Ragweed; for pest or weed control at 125 g/ha: 125 g ai/ha, visual injury after approximately 10 d, 0 to 100 scale where 0 is no effect and 100 is complete control; for pest or weed control at 31 g/ha: 31 g ai/ha, visual injury after approx. 10 d, 0 to 100 scale, 0 no effect, 100 complete control
Summary of the method: as §2

[14] = tested on: barnyardgrass (Echinochloa crus-galli); experiment: Test A postemergence; settings: Echinochloa crus-galli, post-emergence, 240 h, Postemergence, read-out: Plant response rating, Barnyardgrass; for pest or weed control at 125 g/ha: 125 g ai/ha, visual injury after approximately 10 d, 0 to 100 scale where 0 is no effect and 100 is complete control; for pest or weed control at 31 g/ha: 31 g ai/ha, visual injury after approx. 10 d, 0 to 100 scale, 0 no effect, 100 complete control
Summary of the method: as §2

[15] = tested on: blackgrass (Alopecurus myosuroides); experiment: Test A postemergence; settings: Alopecurus myosuroides, post-emergence, 240 h, Postemergence, read-out: Plant response rating, Blackgrass; for pest or weed control at 125 g/ha: 125 g ai/ha, visual injury after approximately 10 d, 0 to 100 scale where 0 is no effect and 100 is complete control; for pest or weed control at 31 g/ha: 31 g ai/ha, visual injury after approx. 10 d, 0 to 100 scale, 0 no effect, 100 complete control
Summary of the method: as §2

Kochia (Kochia scoparia) [16] = experiment: Test A postemergence; settings: Bassia scoparia, post-emergence, 240 h, Postemergence, read-out: Plant response rating, Kochia; for pest or weed control at 125 g/ha: 125 g ai/ha, visual injury after approximately 10 d, 0 to 100 scale where 0 is no effect and 100 is complete control; for pest or weed control at 31 g/ha: 31 g ai/ha, visual injury after approx. 10 d, 0 to 100 scale, 0 no effect, 100 complete control
Summary of the method: as §2

[17] = tested on: ryegrass, Italian (Italian ryegrass, Lolium multiflorum); experiment: Test A postemergence; settings: Lolium multiflorum, post-emergence, 240 h, Postemergence, read-out: Plant response rating, Ryegrass, Italian; for pest or weed control at 125 g/ha: 125 g ai/ha, visual injury after approximately 10 d, 0 to 100 scale where 0 is no effect and 100 is complete control; for pest or weed control at 31 g/ha: 31 g ai/ha, visual injury after approx. 10 d, 0 to 100 scale, 0 no effect, 100 complete control
Summary of the method: as §2

[18] = tested on: pigweed (Amaranthus retroflexus); experiment: Test A postemergence; settings: Amaranthus retroflexus, post-emergence, 240 h, Postemergence, read-out: Plant response rating, Pigweed; for pest or weed control at 125 g/ha: 125 g ai/ha, visual injury after approximately 10 d, 0 to 100 scale where 0 is no effect and 100 is complete control; for pest or weed control at 31 g/ha: 31 g ai/ha, visual injury after approx. 10 d, 0 to 100 scale, 0 no effect, 100 complete control
Summary of the method: as §2

| Compound | pest or weed control at 250 g/ha [1] | pest or weed control at 250 g/ha (rice (Oryra sativa)) | pest or weed control at 250 g/ha [2] | pest or weed control at 250 g/ha [3] | pest or weed control at 125 g/ha [4] | pest or weed control at 31 g/ha [4] | pest or weed control at 31 g/ha [5] | pest or weed control at 125 g/ha [5] | pest or weed control at 125 g/ha [6] | pest or weed control at 31 g/ha [6] | pest or weed control at 31 g/ha (Kochia (Kochia scoparia) [7]) | pest or weed control at 125 g/ha (Kochia (Kochia scoparia) [7]) | pest or weed control at 31 g/ha [8] | pest or weed control at 125 g/ha [8] | pest or weed control at 31 g/ha [9] | pest or weed control at 125 g/ha [9] | pest or weed control at 125 g/ha [10] | pest or weed control at 31 g/ha [10] | pest or weed control at 125 g/ha [11] | pest or weed control at 31 g/ha [11] | other results |
| --- | --- | --- | --- | --- | --- | --- | --- | --- | --- | --- | --- | --- | --- | --- | --- | --- | --- | --- | --- | --- | --- |
| O=C(Nc1cccc(F)c1F)[C@H]1C(=O)N(C2CC2)CC[C@@H]1c1ccc(F)cc1 [Compound 1003] | 0% | 0% | 0% | 0% | 60% | 0% | 0% | 0% | 0% | 0% | 0% | 0% | 0% | 0% | 0% | 0% | 0% | 0% | 0% | 0% | Corn plant response rating (crop injury, 0 = no effect, 100 = complete kill) at 125 g/ha (corn (Zea mays)): 0%; Corn plant response rating (crop injury, 0 = no effect, 100 = complete kill) at 31 g/ha (corn (Zea mays)): 0%; plant injury at 125 g/ha [12]: 0%; plant injury at 31 g/ha [12]: 0%; pest or weed control at 125 g/ha [13]: 0%; pest or weed control at 31 g/ha [13]: 0%; pest or weed control at 125 g/ha [14]: 0%; pest or weed control at 31 g/ha [14]: 0%; pest or weed control at 125 g/ha [15]: 0%; pest or weed control at 31 g/ha [15]: 0%; pest or weed control at 125 g/ha (Kochia (Kochia scoparia) [16]): 0%; pest or weed control at 31 g/ha (Kochia (Kochia scoparia) [16]): 0%; pest or weed control at 125 g/ha [17]: 0%; pest or weed control at 31 g/ha [17]: 0%; pest or weed control at 125 g/ha [18]: 0%; pest or weed control at 31 g/ha [18]: 0% |
| CSc1ccccc1NC(=O)[C@H]1C(=O)N(C2CC2)CC[C@@H]1c1ccc(F)cc1 [Compound 1005] | 0% | 0% | 0% | 0% | 0% | 0% | 0% | 0% | 0% | 0% | 0% | 0% | 0% | 0% | 0% | 0% | 0% | 0% | 0% | 0% | Corn plant response rating (crop injury, 0 = no effect, 100 = complete kill) at 125 g/ha (corn (Zea mays)): 0%; Corn plant response rating (crop injury, 0 = no effect, 100 = complete kill) at 31 g/ha (corn (Zea mays)): 0%; plant injury at 125 g/ha [12]: 0%; plant injury at 31 g/ha [12]: 0%; pest or weed control at 125 g/ha [13]: 0%; pest or weed control at 31 g/ha [13]: 0%; pest or weed control at 125 g/ha [14]: 0%; pest or weed control at 31 g/ha [14]: 0%; pest or weed control at 125 g/ha [15]: 0%; pest or weed control at 31 g/ha [15]: 0%; pest or weed control at 125 g/ha (Kochia (Kochia scoparia) [16]): 0%; pest or weed control at 31 g/ha (Kochia (Kochia scoparia) [16]): 0%; pest or weed control at 125 g/ha [17]: 0%; pest or weed control at 31 g/ha [17]: 0%; pest or weed control at 125 g/ha [18]: 0%; pest or weed control at 31 g/ha [18]: 0% |
